pKi: −log10 of the molar value.
What was measured:
D3R [1] = details: read-out: D3R receptor binding affinities; cited from earlier work
D2R [2] = details: 6 compared to 5; cited from earlier work
D3R [3] = biological target: T1, D3R (Homo sapiens, UniProt P35462); details: Table 1; ratio of binding Ki values D2R/D3R
D2R [4] = details: at concentrations over 50 μM; cited from earlier work
D3R [5] = biological target: T1, D3R; experiment: β-arrestin recruitment assay; details: dopamine curve-shift assays, best fit by F-test
D2R long isoform = D2R long isoform (Homo sapiens, UniProt P14416); experiment: β-arrestin recruitment assay; assay type: cell-based; details: dopamine curve-shift / inhibition of dopamine stimulation
D2R long isoform, sequence (P14416 whole entry, canonical isoform): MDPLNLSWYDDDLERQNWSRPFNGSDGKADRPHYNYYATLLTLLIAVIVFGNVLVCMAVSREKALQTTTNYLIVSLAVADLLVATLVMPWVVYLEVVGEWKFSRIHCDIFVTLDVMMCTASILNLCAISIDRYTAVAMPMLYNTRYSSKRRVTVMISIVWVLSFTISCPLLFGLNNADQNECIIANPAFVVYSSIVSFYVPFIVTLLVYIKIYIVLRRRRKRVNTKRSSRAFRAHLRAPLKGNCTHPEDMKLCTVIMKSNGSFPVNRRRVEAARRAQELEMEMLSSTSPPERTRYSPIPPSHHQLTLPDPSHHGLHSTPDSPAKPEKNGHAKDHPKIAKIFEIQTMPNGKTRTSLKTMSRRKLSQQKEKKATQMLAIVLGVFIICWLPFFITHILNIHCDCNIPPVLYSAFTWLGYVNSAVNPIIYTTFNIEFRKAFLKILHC

T1 sequence (P35462 whole entry): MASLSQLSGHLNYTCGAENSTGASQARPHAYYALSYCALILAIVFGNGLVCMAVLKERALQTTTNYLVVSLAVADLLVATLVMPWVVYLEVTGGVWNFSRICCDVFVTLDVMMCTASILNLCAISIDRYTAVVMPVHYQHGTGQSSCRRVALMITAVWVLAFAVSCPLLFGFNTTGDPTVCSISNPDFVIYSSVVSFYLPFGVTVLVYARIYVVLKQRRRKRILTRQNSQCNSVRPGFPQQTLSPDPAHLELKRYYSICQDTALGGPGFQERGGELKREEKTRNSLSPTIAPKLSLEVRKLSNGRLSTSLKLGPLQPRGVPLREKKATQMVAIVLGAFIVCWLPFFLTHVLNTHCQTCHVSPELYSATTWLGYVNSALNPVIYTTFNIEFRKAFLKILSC

O=C(NC/C=C/CN1CCN(c2cccc(Cl)c2Cl)CC1)c1ccc(-c2ccccn2)cc1 [Compound 6]
pKi (D3R [1]): ~9.00
lower affinity at D2R (D2R [2]): ~ 2 fold

N#Cc1cccc(N2CCNCC2)c1 [Compound 8, 3-(Piperazin-1-yl)benzonitrile]
D2/D3 (D3R [3]): 7.5–9.1

N#Cc1ccc2c(c1)CNCC2 [Compound 9b, 7-cyano-1,2,3,4-tetrahydroisoquinoline]
D2/D3 (D3R [3]): 7.5–9.1

CC(C)NC(=O)c1cc2ccccc2[nH]1 [Compound 13b]
mode of action at the D2R (D2R [4]): allosteric antagonist of the D2R with modest negative cooperativity with dopamine

CCN1CCCC1CNC(=O)c1cc(S(N)(=O)=O)ccc1OC (stereo not shown) [sulpiride]
mechanism of antagonism at the D3R (D3R [5]): competitive antagonist
mechanism of antagonism at the D2R (D2R long isoform): competitive antagonist
